Read-outs that look alike come from different tables or passages of the source.
What was measured:
Format in all cases: cell-based
[1] = target: T1, CDK1-NanoLuc fusion with CCNB1 in 293T or 293 cells (Homo sapiens, UniProt P06493); assay: NanoBRET Target Engagement (TE) Intracellular Kinase Assay, CDK1/CCNB1; details: NanoBRET TE intracellular kinase assay, 2-hour incubation, read-out: NanoBRET-CDK1/B1 IC50
T1 construct: host or cells: 293T (ATCC CRL-3216) or 293 (ATCC CRL-1573)
Method: Inhibitory effects of compounds were measured in NanoBRET TE Intracellular Kinase Assay. 293T (ATCC; CRL-3216) or 293 (ATCC; CRL-1573) cell lines were maintained in 90% DMEM and 10% fetal bovine serum at 37° C., 5% CO2, and 95% relative humidity. Cells were trypsinized and resuspended in assay media (99% Opti-MEM I Reduced Serum Medium, no phenol red, and 1% fetal bovine serum). Cells were co-transfected with 1 μg/mL of CDK-NanoLuc Fusion Vector (Promega; NV2701 for CDK1, NV2781 for CDK2, NV2811 for CDK4, NV2841 for CDK6) and 1 μg/mL of the corresponding Cyclin Expression Vector (Promega; NV2601 for CCNB1, NV2641 for CCNE1, NV2621 for CCND1, NV2631 for CCND3) using FuGENE HD Transfection Reagent (Promega; E2311). 40 uL/well of cells with transfection mixture were seeded in 384-well plates at 1.25×10^5 to 2×10^5 cells/mL and incubated for 24 hours at 37° C., 5% CO2, and 95% relative humidity. On the next day, 100 nL of 100 μM NanoBRET Tracer K-10 (Promega; N2640) and 40 nL of 1000× test compounds prepared in DMSO were added to the cells in each well of 384-well plates for a 2-hour incubation at 37° C., 5% CO2, and 95% relative humidity. 20 uL/well of 3× Intracellular TE Nano-Glo Substrate/Inhibitor (Promega; N2162) were added to 384-well plates and incubated for 3 minutes at room temperature. NanoBRET signals (donor emission wavelength at 450 nm, acceptor emission wavelength at 610 nm) were measured using Envision plate reader (PerkinElmer). NanoBRET ratio was calculated by: BRET Ratio=raw signal for acceptor/raw signal for donor. Dose response curve normalized to DMSO control was plotted using four-parameter logistic model for IC50 calculation.

[2] = target: T2, CDK2-NanoLuc fusion with CCNE1 in 293T or 293 cells (Homo sapiens, UniProt P24941); assay: NanoBRET Target Engagement (TE) Intracellular Kinase Assay, CDK2/CCNE1; details: NanoBRET TE intracellular kinase assay, 2-hour incubation, read-out: NanoBRET-CDK2/E1 IC50
T2 construct: host or cells: 293T (ATCC CRL-3216) or 293 (ATCC CRL-1573)

[3] = target: T3, CDK4-NanoLuc fusion with CCND1 in 293T or 293 cells (Homo sapiens, UniProt P11802); assay: NanoBRET Target Engagement (TE) Intracellular Kinase Assay, CDK4/CCND1; details: NanoBRET TE intracellular kinase assay, 2-hour incubation, read-out: NanoBRET-CDK4/D1 IC50
T3 construct: host or cells: 293T (ATCC CRL-3216) or 293 (ATCC CRL-1573)
T3 sequence (P11802 whole entry, the tested form may be a part): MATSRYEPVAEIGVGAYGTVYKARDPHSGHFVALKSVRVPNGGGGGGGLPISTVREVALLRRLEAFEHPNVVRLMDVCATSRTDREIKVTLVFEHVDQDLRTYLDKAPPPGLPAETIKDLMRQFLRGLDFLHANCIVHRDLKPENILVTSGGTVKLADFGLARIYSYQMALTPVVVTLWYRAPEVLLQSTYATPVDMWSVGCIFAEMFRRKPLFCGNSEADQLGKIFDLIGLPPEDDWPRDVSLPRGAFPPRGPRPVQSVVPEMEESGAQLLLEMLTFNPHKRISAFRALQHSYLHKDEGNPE
T3 sequence (P24385 whole entry partner, the tested form may be a part): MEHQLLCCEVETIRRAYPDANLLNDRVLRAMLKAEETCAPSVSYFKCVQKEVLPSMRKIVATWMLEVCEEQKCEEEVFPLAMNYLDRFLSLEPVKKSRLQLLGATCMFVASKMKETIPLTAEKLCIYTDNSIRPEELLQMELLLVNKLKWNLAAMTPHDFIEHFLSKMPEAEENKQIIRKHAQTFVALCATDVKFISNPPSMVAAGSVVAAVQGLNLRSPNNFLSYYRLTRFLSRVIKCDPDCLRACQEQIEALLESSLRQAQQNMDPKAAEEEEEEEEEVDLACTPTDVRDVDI

[4] = tested on: Phospho-Rb Ser807/811 in OVCAR3 cells; assay: OVCAR3 Phospho-Rb Ser807/811 HTRF assay; details: Homo sapiens, OVCAR-3, 1 h, read-out: pRb-OVCAR3 IC50
Method: Cells were trypsinized and resuspended in 1 mM hydroxyurea (Sigma; H8627), 90% RPMI and 10% fetal bovine serum. […] Dose response curve normalized to DMSO control was plotted using four-parameter logistic model for IC50 calculation.

[5] = OVCAR3 cells, Phospho-Rb Ser807/811 HTRF, 1 hour incubation

T1 sequence (P06493 whole entry, the tested form may be a part): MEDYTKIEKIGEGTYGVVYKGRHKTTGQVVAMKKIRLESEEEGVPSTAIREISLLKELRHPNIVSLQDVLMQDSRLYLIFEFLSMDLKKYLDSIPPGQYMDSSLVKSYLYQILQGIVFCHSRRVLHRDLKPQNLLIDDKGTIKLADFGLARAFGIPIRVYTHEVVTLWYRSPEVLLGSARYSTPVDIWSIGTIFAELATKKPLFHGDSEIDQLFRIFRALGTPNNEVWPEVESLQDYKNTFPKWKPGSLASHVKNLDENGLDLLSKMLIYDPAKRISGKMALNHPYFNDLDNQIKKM
T1 sequence (P14635 whole entry partner, the tested form may be a part): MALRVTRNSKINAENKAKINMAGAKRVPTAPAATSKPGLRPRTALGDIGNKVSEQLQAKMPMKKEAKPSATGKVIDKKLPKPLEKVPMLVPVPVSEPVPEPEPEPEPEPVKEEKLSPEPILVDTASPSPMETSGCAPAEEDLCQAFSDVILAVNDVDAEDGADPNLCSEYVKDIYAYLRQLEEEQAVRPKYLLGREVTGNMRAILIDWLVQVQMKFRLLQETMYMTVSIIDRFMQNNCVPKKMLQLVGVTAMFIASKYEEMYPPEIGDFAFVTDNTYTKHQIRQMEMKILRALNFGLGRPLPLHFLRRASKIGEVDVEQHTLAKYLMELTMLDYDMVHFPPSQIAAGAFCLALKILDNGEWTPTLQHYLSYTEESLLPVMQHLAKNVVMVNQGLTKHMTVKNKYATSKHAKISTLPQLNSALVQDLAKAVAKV

## CCOc1cc(O)c(C=O)c(OCC(=O)Nc2cc([C@H]3CC[C@@H](OC(=O)N4CCC4(C)C)C3)[nH]n2)c1 [Compound 211, (1R,3S)-3-(3-(2-(5-ethoxy-2-formyl-3-hydroxyphenoxy)acetamido)-1H-pyrazol-5-yl)cyclopentyl 2,2-dimethylazetidine-1-carboxylate]
[1]
  IC50: 0.00901 µM
[2]
  IC50: 0.00268 µM
[3]
  IC50: 2.12 µM
[4]; [5]
  IC50: 0.0345 µM

## COc1ccc(OCC(=O)Nc2cc([C@H]3CC[C@@H](OC(=O)NC(C)C)C3)[nH]n2)c(C=O)c1O [Compound 80, (1R,3S)-3-{5-[2-(2-formyl-3-hydroxy-4-methoxyphenoxy)acetamido]-2H-pyrazol-3-yl}cyclopentyl N-isopropylcarbamate]
[1]
  IC50: 0.0373 µM
[2]
  IC50: 0.0254 µM
[3]
  IC50: > 10 µM
[4]; [5]
  IC50: 0.132 µM

## CC(C)NC(=O)O[C@@H]1CC[C@H](c2cc(NC(=O)c3cc(Oc4cccc(O)c4C=O)nn3C)n[nH]2)C1 [Compound 19, (1R,3S)-3-{5-[5-(2-formyl-3-hydroxyphenoxy)-2-methylpyrazole-3-amido]-2H-pyrazol-3-yl}cyclopentyl N-isopropylcarbamate]
[1]
  IC50: 0.078 µM
[2]
  IC50: 0.0164 µM
[3]
  IC50: 2.42 µM
[4]; [5]
  IC50: 0.941 µM

## COc1cccc(OCC(=O)Nc2cc([C@H]3CC[C@@H](OC(=O)NC(C)C)C3)[nH]n2)c1C=O [Compound 95, (1R,3S)-3-{5-[2-(2-formyl-3-methoxyphenoxy)acetamido]-2H-pyrazol-3-yl}cyclopentyl N-isopropylcarbamate; trifluoroacetic acid]
[1]
  IC50: 0.0215 µM
[2]
  IC50: 0.00126 µM
[3]
  IC50: > 10 µM
[4]; [5]
  IC50: 0.115 µM

## CC(C)NC(=O)O[C@@H]1CC[C@H](c2cc(NC(=O)[C@H]3C[C@H](c4cccc(O)c4C=O)C3)n[nH]2)C1 [Compound 107, (1R,3S)-3-(3-((1r,3S)-3-(2-formyl-3-hydroxyphenyl)cyclobutane-1-carboxamido)-1H-pyrazol-5-yl)cyclopentyl isopropylcarbamate]
[1]
  IC50: 0.012 µM
[2]
  IC50: 0.0044 µM
[3]
  IC50: 0.224 µM
[4]; [5]
  IC50: 0.0596 µM

## CCCNC(=O)O[C@@H]1CC[C@H](c2cc(NC(=O)COc3cccc(O)c3C=O)n[nH]2)C1 [Compound 81, (1R,3S)-3-{5-[2-(2-formyl-3-hydroxyphenoxy)acetamido]-2H-pyrazol-3-yl}cyclopentyl N-propylcarbamate; trifluoroacetic acid]
[1]
  IC50: 0.0188 µM
[2]
  IC50: 0.0023 µM
[3]
  IC50: > 10 µM
[4]; [5]
  IC50: 0.119 µM

## COc1cc(O)c(C=O)c(OCC(=O)Nc2cc([C@H]3C[C@@H](OC(=O)N4C5COCC4C5)C3)[nH]n2)c1 [Compound 111, (1s,3s)-3-(3-(2-(2-formyl-3-hydroxy-5-methoxyphenoxy)acetamido)-1H-pyrazol-5-yl)cyclobutyl 3-oxa-6-azabicyclo[3.1.1]heptane-6-carboxylate]
[1]
  IC50: 0.021 µM
[2]
  IC50: 0.00545 µM
[3]
  IC50: > 10 µM
[4]; [5]
  IC50: 0.0798 µM

## COc1cc(O)c(C=O)c(OCC(=O)Nc2cc([C@H]3CC[C@@H](OC(=O)N4CCC4(C)C)C3)[nH]n2)c1 [Compound 239, (1R,3S)-3-(3-(2-(2-formyl-3-hydroxy-5-methoxyphenoxy)acetamido)-1H-pyrazol-5-yl)cyclopentyl 2,2-dimethylazetidine-1-carboxylate]
[1]
  IC50: 0.00214 µM
[2]
  IC50: 0.00189 µM
[3]
  IC50: 0.846 µM
[4]; [5]
  IC50: 0.0131 µM

## CC(C)NC(=O)O[C@@H]1CC[C@H](c2cc(NC(=O)c3cc(COc4cccc(O)c4C=O)nn3C)n[nH]2)C1 [Compound 27, (1R,3S)-3-{5-[5-(2-formyl-3-hydroxyphenoxymethyl)-2-methylpyrazole-3-amido]-2H-pyrazol-3-yl}cyclopentyl N-isopropylcarbamate]
[1]
  IC50: 0.0177 µM
[2]
  IC50: 0.00524 µM
[3]
  IC50: 0.112 µM
[4]; [5]
  IC50: 0.0952 µM

## COCC1(NC(=O)O[C@@H]2CC[C@H](c3cc(NC(=O)COc4cc(OC)cc(O)c4C=O)n[nH]3)C2)CC1 [Compound 209]
[1]
  IC50: 0.00594 µM
[2]
  IC50: 0.00655 µM
[3]
  IC50: 3.87 µM
[4]; [5]
  IC50: 0.0287 µM

## CC(C)NC(=O)O[C@@H]1CC[C@H](c2cc(NC(=O)c3ccc(O)c(C=O)c3)n[nH]2)C1 [Compound 3, (1R,3S)-3-(3-(3-formyl-4-hydroxybenzamido)-1H-pyrazol-5-yl)cyclopentyl isopropylcarbamate trifluoroacetic acid]
[1]
  IC50: 0.0328 µM
[2]
  IC50: 0.00948 µM
[3]
  IC50: 0.255 µM
[4]; [5]
  IC50: 0.129 µM

## CC(C)NC(=O)O[C@@H]1CC[C@H](c2cc(NC(=O)C3Cc4ccc(O)c(C=O)c4O3)n[nH]2)C1 (stereo partly drawn) [Compound 62, (1R,3S)-3-(3-(7-formyl-6-hydroxy-2,3-dihydrobenzo-furan-2-carboxamido)-1H-pyrazol-5-yl)cyclopentyl isopropylcarbamate]
[1]
  IC50: 0.27 µM
[2]
  IC50: 0.0344 µM
[3]
  IC50: 7.23 µM
[4]; [5]
  IC50: 1.87 µM

## COc1cc(O)c(C=O)c(OCC(=O)Nc2cc([C@H]3CC[C@@H](OC(=O)N4C[C@@H]5C[C@H]4CO5)C3)[nH]n2)c1 [Compound 204]
[1]
  IC50: 0.0122 µM
[2]
  IC50: 0.00454 µM
[3]
  IC50: > 9.51 µM
[4]; [5]
  IC50: 0.0346 µM

## CC(C)NC(=O)O[C@@H]1CC[C@H](c2cc(NC(=O)Cc3ccc(O)c(C=O)c3)n[nH]2)C1 [Compound 5, (1R,3S)-3-{5-[2-(3-formyl-4-hydroxyphenyl)acetamido]-2H-pyrazol-3-yl}cyclopentyl N-isopropylcarbamate]
[1]
  IC50: 0.00554 µM
[2]
  IC50: 0.00658 µM
[3]
  IC50: 0.0526 µM
[4]
  IC50: 0.187 µM

## CC(=O)Nc1cc(C(=O)Nc2cc([C@H]3CC[C@@H](OC(=O)NC(C)C)C3)[nH]n2)ccc1C=O [Compound 37, (1R,3S)-3-(3-(3-acetamido-4-formylbenzamido)-1H-pyrazol-5-yl)cyclopentyl isopropylcarbamate]
[1]
  IC50: 0.176 µM
[2]
  IC50: 0.0156 µM
[3]
  IC50: 0.128 µM
[4]; [5]
  IC50: 0.344 µM

## COc1cc(O)c(C=O)c(OCC(=O)Nc2cc([C@H]3CC[C@@H](OC(=O)N4CC5CC5C4)C3)[nH]n2)c1 (stereo partly shown) [Compound 237]
[1]
  IC50: 0.0116 µM
[2]
  IC50: 0.00179 µM
[3]
  IC50: 4.96 µM
[4]; [5]
  IC50: 0.0557 µM

## CC(C)NC(=O)O[C@@H]1CC[C@H](c2cc(NC(=O)[C@@H]3Cc4ccc(O)c(C=O)c4C3)n[nH]2)C1 [Compound 256]
[1]
  IC50: 0.0203 µM
[2]
  IC50: 0.00376 µM
[4]; [5]
  IC50: 0.0689 µM

## CC(C)NC(=O)O[C@@H]1CC[C@H](c2cc(NC(=O)[C@@H]3Cc4ccc(O)c(C=O)c4C3)n[nH]2)C1 [Compound 26, (1R,3S)-3-{5-[(2R)-4-formyl-5-hydroxy-2,3-dihydro-1H-indene-2-amido]-2H-pyrazol-3-yl}cyclopentyl N-isopropylcarbamate]
[1]
  IC50: 0.0217 µM
[2]
  IC50: 0.00278 µM
[4]; [5]
  IC50: 0.0945 µM

## CC(C)NC(=O)O[C@@H]1CC[C@H](c2cc(NC(=O)CCCc3cccc(O)c3C=O)n[nH]2)C1 [Compound 12, 1R,3S)-3-(3-(4-(2-formyl-3-hydroxyphenyl)butanamido)-1H-pyrazol-5-yl)cyclopentyl isopropylcarbamate]
[1]
  IC50: 0.126 µM
[2]
  IC50: 0.0111 µM
[3]
  IC50: 1.45 µM

## CC(C)NC(=O)O[C@@H]1CC[C@H](c2cc(NC(=O)CNc3cccc(O)c3C=O)n[nH]2)C1 [Compound 259]
[1]
  IC50: 8.06 µM
[2]
  IC50: 0.649 µM
[3]
  IC50: > 10 µM

Reference: US20250289789A1, “REVERSIBLE LYSINE COVALENT MODIFIERS OF CDK2 AND USES THEREOF” (Terremoto Biosciences, Inc., priority 2023, published 2025)
